Reference: patent US9296698B2, “Amino heteroaryl compounds as beta-secretase modulators and methods of use” (Amgen Inc., priority 2009, dated 2016)
Read-outs that look alike come from different tables or passages of the source.

What was measured:
[1] = molecular target: BACE 1 (Beta Secretase enzyme) (Homo sapiens, UniProt P56817); assay: In vitro enzymatic BACE FRET assay; format: biochemical
Method: In Vitro Enzymatic BACE FRET (Fluorescence Resonance Energy Transfer) Assay (Enzyme Assay Data in Table 1)
The assay buffer used in this screen is 0.05 M acetate, pH 4.2, 10% DMSO final, 100 uM genapol (which is a nonionic detergent, below its Critical Micelle Concentration). […] The assay is effectively started by the addition of FRET substrate (50 nM) and the combination is incubated for one hour. The FRET assay is terminated with by addition of Tris buffer, which raises the pH to neutrality, and the fluorescence is determined. The FRET substrate is a peptide with commercially available fluorophore and quencher, on opposite sides of the BACE cleavage site.

[2] = system: Aβ40 in conditioned medium of cells stably expressing Amyloid Precursor Protein (APP); assay: In vitro BACE cell-based assay (HEK cell assay), Aβ40 sandwich ELISA
Method: In Vitro BACE Cell-Based Assay:
The cell-based assay measures inhibition or reduction of Aβ40 in conditioned medium of test compound treated cells expressing amyloid precursor protein.
Cells stably expressing Amyloid Precursor Protein (APP) were plated at a density of 40K cells/well in 96 well plates (Costar). The cells were cultivated for 24 hours at 37° C. and 5% CO2 in DMEM supplemented with 10% FBS. The test compounds were then added to cells in 10-point dose response concentrations with the starting concentration being either 100 μM or 10 μM. The compounds were diluted from stock solutions in DMSO and the final DMSO concentration of the test compounds on cells was 0.1%. After 24 h of incubation with the test compounds the supernatant conditioned media was collected and the Aβ 40 levels were determined using a sandwich ELISA. The IC50 of the compound was calculated from the percent of control or percent inhibition of Aβ 40 as a function of the concentration of the test compound.
The sandwich ELISA to detect Aβ 40 was performed in 96 well microtiter plates, which were pre-treated with goat anti-rabbit IgG (Pierce). The capture and detecting antibody pair that were used to detect Aβ 40 from cell supernatants were affinity purified pAb40 (Biosource) and biotinylated 6E10 (Signet Labs Inc.), respectively. The optimal concentration for the pAb40 antibody was 3 μg/ml in Superblock/TBS (Pierce) that was supplemented with 0.05% Tween 20 (Sigma).
Cellular supernatants were incubated with the capture antibody for 3 h at 4° C., followed by 3 wash steps in TBS-tween (0.05%). The detecting antibody incubation was for 2 h at 4° C., again followed by the wash steps as described previously. The final readout of the ELISA is Time-Resolved Fluorescence (counts per minute) using Delfia reagents Streptavidin-Europium and Enhancement solutions (Perkin Elmer) and the Victor 2 multilabel counter (Perkin Elmer).

[3] = IC50 range symbols, Table 1, read-out: BACE 1 FRET assay
[4] = Homo sapiens, HEK293, 24 h, IC50 range symbols, Table 1, Aβ40, 24 h incubation, read-out: HEK cell assay
[5] = bound stated, read-out: IC50 value in the FRET BACE enzyme assay
[6] = IC50 range symbols, Table 1, Aβ40, 24 h incubation, read-out: HEK cell assay

Chain of BACE 1 (Beta Secretase enzyme) (P56817 46-501, species assumed): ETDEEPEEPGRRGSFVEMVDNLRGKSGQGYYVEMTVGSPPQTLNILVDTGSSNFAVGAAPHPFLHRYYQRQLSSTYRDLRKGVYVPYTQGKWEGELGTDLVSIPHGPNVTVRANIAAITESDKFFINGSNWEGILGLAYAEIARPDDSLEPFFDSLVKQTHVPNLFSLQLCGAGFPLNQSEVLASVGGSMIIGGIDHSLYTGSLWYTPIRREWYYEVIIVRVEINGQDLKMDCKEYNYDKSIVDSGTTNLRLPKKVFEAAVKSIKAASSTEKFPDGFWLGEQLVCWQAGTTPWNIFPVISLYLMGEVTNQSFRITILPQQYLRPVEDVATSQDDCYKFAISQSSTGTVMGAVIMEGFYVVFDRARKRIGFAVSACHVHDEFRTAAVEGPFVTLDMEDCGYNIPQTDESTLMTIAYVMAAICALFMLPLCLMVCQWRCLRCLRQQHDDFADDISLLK

With `CC(Cc1cc2cc(-c3ncccc3Cl)ccc2nc1N)C(=O)NC[C@H]1CCCCO1` (stereo partly drawn) [Example 83, 3-(2-amino-6-(3-chloropyridin-2-yl)quinolin-3-yl)-2-methyl-N-(((R)-tetrahydro-2H-pyran-2-yl)methyl)propanamide] the IC50 [1, 3] was < 500 nM and the IC50 [2, 4] was 1000 to 5000 nM.

In the case of `Cc1ccccc1-c1cc2cc(CC(C)C(=O)NCCC(F)(F)F)c(N)nc2cn1` (centres unmarked) [Example 137, 3-(2-amino-6-o-tolyl-1,7-naphthyridin-3-yl)-2-methyl-N-(3,3,3-trifluoropropyl)propanamide], the IC50 [1, 3] is reported as < 500 nM and the IC50 [2, 4] is reported as > 5000 nM.

In the case of `CCCCOc1ccccc1-c1ccc2nc(N)c(CC(C)C(=O)NCC3CCCCC3)cc2c1` (centres unmarked) [Example 103, 3-(2-amino-6-(2-butoxyphenyl)quinolin-3-yl)-N-(cyclohexylmethyl)-2-methylpropanamide], the IC50 [1, 3] is reported as < 500 nM, the IC50 [1, 5] is reported as < 50 nM and the IC50 [2, 4] is reported as < 500 nM.

With `Cc1ccccc1-c1ccc2nc(N)c(CC(C)C(=O)NCC3CCOC3)cc2c1` (centres unmarked) [Example 91, 3-(2-amino-6-o-tolylquinolin-3-yl)-2-methyl-N-((tetrahydrofuran-3-yl)methyl)propanamide] the IC50 [1, 3] was < 500 nM and the IC50 [2, 4] was 1000 to 5000 nM.

For `COc1ccccc1[C@@H](C)NC(=O)C(C)Cc1cc2cc(-c3ccccc3C)ccc2nc1N` (stereo partly drawn) [Example 129, 3-(2-amino-6-o-tolylquinolin-3-yl)-N-((R)-1-(2-methoxyphenyl)ethyl)-2-methylpropanamide], the IC50 [1, 3] was < 500 nM and the IC50 [2, 6] was 1000 to 5000 nM.

For “N-(3-fluoro-3-methylbutyl)-2-methyl-3-(6-(3-methylpyridin-2-yl)quinolin-3-yl)propanamide [Example 101]”, the IC50 [1, 3] was < 500 nM and the IC50 [2, 6] was < 500 nM.

`Cc1ccccc1-c1ccc2nc(N)c(CCC(=O)NC3CCCN(C)C3)cc2c1` (centres unmarked) [Example 39, 3-(2-amino-6-o-tolylquinolin-3-yl)-N-(1-methylpiperidin-3-yl)propanamide] gave an IC50 [1, 3] of 1000 to 5000 nM and an IC50 [2, 4] of 1000 to 5000 nM.

For `Cc1ccccc1-c1ccc2nc(N)c(C[C@@H](C)C(=O)NCc3ccncn3)cc2c1` [Example 84, (R)-3-(2-amino-6-o-tolylquinolin-3-yl)-2-methyl-N-(pyrimidin-4-ylmethyl)propanamide], the IC50 [1, 3] was < 500 nM, the IC50 [1, 5] was < 50 nM and the IC50 [2, 4] was < 500 nM.

In the case of `Cc1ccccc1-c1ccc2nc(N)c(C[C@@H](C)C(=O)NCc3ncccn3)cc2c1` [Example 85, (R)-3-(2-amino-6-o-tolylquinolin-3-yl)-2-methyl-N-(pyrimidin-2-ylmethyl)propanamide], the IC50 [1, 3] is reported as < 500 nM and the IC50 [2, 4] is reported as < 500 nM.

For `Nc1nc2ccc(-c3ccc(F)cc3)cc2cc1CCC(=O)NCC1CCCCC1` [Example 65, 3-(2-amino-6-(4-fluorophenyl)quinolin-3-yl)-N-(cyclohexylmethyl)propanamide], the IC50 [1, 3] was < 500 nM and the IC50 [2, 4] was > 5000 nM.

In the case of `CNC(=O)C(C)Cc1cc2cc(-c3ccccc3C(=O)C3CCCCC3)ccc2nc1N` (centres unmarked) [Example 157, 3-(2-amino-6-(2-(cyclohexanecarbonyl)phenyl)quinolin-3-yl)-N,2-dimethylpropanamide], the IC50 [1, 3] is reported as < 500 nM and the IC50 [2, 4] is reported as 500 to 1000 nM.

In the case of `Cc1ccccc1-c1ccc2nc(N)c(CCC(=O)NCC3(C)COC3)cc2c1` [Example 58, 3-(2-amino-6-o-tolylquinolin-3-yl)-N-((3-methyloxetan-3-yl)methyl)propanamide], the IC50 [1, 3] is reported as 1000 to 5000 nM and the IC50 [2, 4] is reported as > 5000 nM.

In the case of `Cc1ccccc1-c1ccc2nc(N)c(CC(C)C(=O)Nc3ccccc3)cc2c1` (centres unmarked) [Example 51, 3-(2-amino-6-o-tolylquinolin-3-yl)-2-methyl-N-phenylpropanamide], the IC50 [1, 3] is reported as < 500 nM and the IC50 [2, 4] is reported as 1000 to 5000 nM.

`Cc1ccccc1-c1ccc2nc(N)c(CCC(=O)NCc3ccn(C)n3)cc2c1` [Example 54, 3-(2-amino-6-o-tolylquinolin-3-yl)-N-((1-methyl-1H-pyrazol-3-yl)methyl)propanamide] was tested, and the IC50 [1, 3] was 1000 to 5000 nM and the IC50 [2, 4] was > 5000 nM.

In the case of `CC(Cc1cc2cc(-c3ccc(Cl)cc3)ccc2nc1N)C(=O)NC1CCOC(C)(C)C1` (centres unmarked) [Example 168, 3-(2-amino-6-(4-chlorophenyl)-3-quinolinyl)-N-(2,2-dimethyltetrahydro-2H-pyran-4-yl)-2-methylpropanamide], the IC50 [1, 3] is reported as < 500 nM and the IC50 [2, 4] is reported as < 500 nM.

`Cc1cccc(C(=O)N2CCCC2)c1-c1ccc2nc(N)c(CC(C)C(=O)Nc3ccccc3)cc2c1` (centres unmarked) [Example 153, 3-(2-amino-6-(2-methyl-6-(pyrrolidine-1-carbonyl)phenyl)quinolin-3-yl)-2-methyl-N-phenylpropanamide] was tested, and the IC50 [1, 3] was < 500 nM, the IC50 [1, 5] was < 50 nM and the IC50 [2, 4] was < 500 nM. For the same compound, the IC50 ([2]; Homo sapiens, HEK293, bound stated in text, read-out: IC50 value in the BACE cell-based in-vitro assay) was < 100 nM.

In the case of “N-(2-fluorobenzyl)-3-(3-amino-7-o-tolylnaphthalen-2-yl)propanamide [Example 27]”, the IC50 [1, 3] is reported as < 500 nM and the IC50 [2, 6] is reported as 1000 to 5000 nM.

With `CC(=O)c1ccccc1-c1ccc2nc(N)c(CC(C)C(=O)Nc3ccccc3)cc2c1` (centres unmarked) [Example 152, 3-(6-(2-acetylphenyl)-2-aminoquinolin-3-yl)-2-methyl-N-phenylpropanamide] the IC50 [1, 3] was < 500 nM and the IC50 [2, 4] was < 500 nM.

With `Cc1ccccc1-c1ccc2nc(N)c(CCC(=O)NCCC3CCCCC3)cc2c1` [Example 24, 3-(2-amino-6-o-tolylquinolin-3-yl)-N-(2-cyclohexylethyl)propanamide] the IC50 [1, 3] was < 500 nM and the IC50 [2, 4] was < 500 nM.

In the case of `CC(Cc1cc2cc(-c3ccccc3C(=O)C3CCCCC3)ccc2nc1N)C(=O)NC1CCOC(C)(C)C1` (centres unmarked) [Example 147, 3-(2-amino-6-(2-(cyclohexylcarbonyl)phenyl)-3-quinolinyl)-N-(2,2-dimethyltetrahydro-2H-pyran-4-yl)-2-methylpropanamide], the IC50 [1, 3] is reported as < 500 nM and the IC50 [2, 4] is reported as < 500 nM.

Work on `CC(Cc1cc2cc(-c3ncccc3Cl)ccc2nc1N)C(=O)NC[C@@H]1CCCCO1` (stereo partly drawn) [Example 82, 3-(2-amino-6-(3-chloropyridin-2-yl)quinolin-3-yl)-2-methyl-N-(((S)-tetrahydro-2H-pyran-2-yl)methyl)propanamide] yielded an IC50 [1, 3] of 500 to 1000 nM and an IC50 [2, 4] of 1000 to 5000 nM.

With `Cc1ccccc1-c1ccc2nc(N)c(CCC(=O)NCc3nccs3)cc2c1` [Example 63, 3-(2-amino-6-o-tolylquinolin-3-yl)-N-(thiazol-2-ylmethyl)propanamide] the IC50 [1, 3] was < 500 nM and the IC50 [2, 4] was 1000 to 5000 nM.

With `Nc1nc2ccc(-c3ccccc3Cl)cc2cc1CCC(=O)NCC1CCCCC1` [Example 3, 3-(2-amino-6-(2-chlorophenyl)quinolin-3-yl)-N-(cyclohexylmethyl)propanamide] the IC50 [1, 3] was < 500 nM and the IC50 [2, 4] was 1000 to 5000 nM.

With `COc1ccccc1[C@@H](C)NC(=O)[C@@H](C)Cc1cc2cc(-c3ccccc3C)ccc2nc1N` [Example 75, (S)-3-(2-amino-6-o-tolylquinolin-3-yl)-N-((R)-1-(2-methoxyphenyl)ethyl)-2-methylpropanamide] the IC50 [1, 3] was < 500 nM and the IC50 [2, 4] was 1000 to 5000 nM.

In the case of `Cc1ccccc1-c1ccc2nc(N)c(CCC(=O)NCC3CCCCC3)nc2c1` [Example 140, 3-(3-amino-7-(2-methylphenyl)-2-quinoxalinyl)-N-(cyclohexylmethyl)propanamide], the IC50 [1, 3] is reported as < 500 nM and the IC50 [2, 4] is reported as 1000 to 5000 nM.

In the case of `Cc1ccccc1-c1ccc2nc(N)c(CC(C)C(=O)N[C@H](C)c3ccccc3OC(F)F)cc2c1` (stereo partly drawn) [Example 130, 3-(2-amino-6-o-tolylquinolin-3-yl)-N-((R)-1-(2-(difluoromethoxy)phenyl)ethyl)-2-methylpropanamide], the IC50 [1, 3] is reported as < 500 nM and the IC50 [2, 6] is reported as 1000 to 5000 nM.

For `CC(Cc1cc2cc(-c3ncccc3CCN3CCOCC3)ccc2nc1N)C(=O)NCCC(C)(C)C` (centres unmarked) [Example 123, 3-(2-amino-6-(3-(2-morpholinoethyl)pyridin-2-yl)quinolin-3-yl)-N-(3,3-dimethylbutyl)-2-methylpropanamide], the IC50 [1, 3] was < 500 nM and the IC50 [2, 4] was < 500 nM.

In the case of `N#Cc1ccccc1-c1ccc2nc(N)c(CCC(=O)NCC3CCCCC3)cc2c1` [Example 41, 3-(2-amino-6-(2-cyanophenyl)quinolin-3-yl)-N-(cyclohexylmethyl)propanamide], the IC50 [1, 3] is reported as < 500 nM and the IC50 [2, 4] is reported as 1000 to 5000 nM.

“3-(3-amino-7-o-tolylnaphthalen-2-yl)-2-methyl-N-(pyridin-3-ylmethyl)propanamide [Example 69]” was tested, and the IC50 [1, 3] was < 500 nM and the IC50 [2, 6] was 500 to 1000 nM.
